Laboratory results published in patent US8383626B2, “Nitric oxide donors for inducing neurogenesis” (Henry Ford Health System, priority 1999, dated 2013).

Assays:
Type in all cases: in vivo, rat
[1] = tested on: progenitor cells in the dentate gyrus and subventricular zone (SVZ); assay: Cell proliferation (BrdU immunoreactive cells) in ischemic rats treated with VIAGRA; settings: 28 days after ischemia, vs saline
Experimental: (§1) The MCA was occluded by placement of an embolus at the origin of the MCA.
(§2) For BrdU immunostaining, DNA was first denatured by incubating brain sections (6 μm) in 50% formamide 2×SSC at 65° C. for 2 hours and then in 2 N HCL at 37° C. for 30 minutes. Sections were then rinsed with Tris buffer and treated with 1% of H2O2 to block endogenous peroxidase. Sections were incubated with a primary antibody to BrdU (1:100) at room temperature for 1 hour and then incubated with biotinylated secondary antibody (1:200, Vector, Burlingame, Calif.) for 1 hour. Reaction products were detected using 3′3′-diaminobenzidine-tetrahydrochloride (DAB, Sigma). For TuJ1 immunostaining, coronal sections were incubated with the antibody against TuJ1 (1:1000) at 4° C. overnight and then incubated with a biotinylated horse anti-mouse immunoglobulin antibody at room temperature for 30 minutes. Reaction products were detected with DAB.
BrdU immunostained sections were digitized using a 40× objective (Olympus BX40) via the MCID computer imaging analysis system (Imaging Research, St. Catharines, Canada). BrdU immunoreactive nuclei were counted on a computer monitor to improve visualization and in one focal plane to avoid over-sampling. Structures were sampled by analyzing entire structures on each section (SVZ and dentate gyrus). All BrdU immunoreactive-positive nuclei in these areas are presented as the number of the BrdU immunoreactive cells/mm^2 and data shown are mean±SE. Density for the selected several sections was averaged to obtain a mean density value for each animal. For measurements of TuJ1 immunoreactivity, a threshold was applied to each digitized image (628×480 μm^2) for ensuring that the numbers of TuJ1 immunostained pixels were representative of the original TuJ1 immunoreactive patterns. All objects with fewer than 5 pixels were eliminated from measurements. Data are presented as a percentage of area, in which the number of TuJ1 immunostained pixels was divided by the total number of pixels in the area (628×480 μm^2). […]

[2] = tested on: ischemic rats (MCA occlusion); assay: Behavior tests (foot-fault, adhesive removal) and body weight after MCA occlusion
Experimental: as §1
(§3) The ischemic rats (n=9) were treated with the same volume of saline as a control group. Rats received intraperitoneal injection of BrdU (50 mg/kg) 24 hours after ischemia and daily intraperitoneal injection of BrdU for 14 consecutive days. All rats were sacrificed 28 days after ischemia.

[3] = tested on: TuJ1 immunoreactive cells; assay: TuJ1 immunoreactivity 28 days after ischemia; settings: 2 or 5 mg/kg; vs contralateral hemisphere and saline treated ischemic rats
Experimental: as §2, with “3'3'-diaminobenzidine-tetrahydrochloride” for “3′3′-diaminobenzidine-tetrahydrochloride”, “DAB. BrdU immunostained sections were digitized using a 40× objective (Olympus BX40) via the MCID computer imaging analysis system (Imaging Research, St. Catharines, Canada). BrdU immunoreactive nuclei were counted on a computer monitor to improve visualization and in one focal plane to avoid over-sampling. Structures were sampled by analyzing entire structures on each section (SVZ and dentate gyrus). […] To examine the effects of […] on neurons, TuJ1 immunoreactivity was measured 28 days after ischemia.” for “DAB.”

[4] = tested on: focal cerebral ischemia (MCA occlusion); assay: Infarct volume 28 days after ischemia
Experimental: as §1, §3

[5] = tested on: ischemic rats (stroke); assay: Battery of neurological functional tests (NSS, Rotarod, footfault, adhesive removal, body weight) after stroke; settings: Group 3: iv at one day and two days after stroke; middle aged rats; vs control
Experimental: Administration of nitric oxide donor compound (DETA/NO) to normal and ischemic rats promotes neurogenesis in non-ischemic and ischemic brains. Since then, additional experiments have been performed to test the hypothesis that neurogenesis induced by DETA/NO promotes functional improvement after stroke; the data is provided herewith. Animals were administered (iv/ip) DETA/NO at one day (Group 1) or seven days (Group 2) after induction of stroke and followed by daily injection (ip) of DETA/NO over a period of seven days. Another NO donor compound (SNAP) was administered (iv) to ischemic rats at one day and two days after stroke (Group 3). Young (3 month old) rats were used in Groups 1 and 2. Middle aged rats (10 to 12 months old) were used in Group 3. A battery of neurological functional tests were measured from two days to forty-two days after stroke. These tests included 1) Neurological severity score (NSS) which measures motor, sensory and reflex functions and is similar to the contralateral neglect testing described in humans. The higher the score, the more severe the injury; 2) Rotarod test measures fore and hindlimb motor coordination and balance. Data are presented as percentage of baseline values; 3) Footfault test measures fore and hindlimb motor coordination. The higher the number, the more severe the injury; 4) Adhesive removal test measures sensorimotor impairments. Data are presented as time (seconds). The longer the time period, the more severe the injury; 5) Animal body weight.

Compound	numbers of BrdU immunoreactive cells in the ipsilateral SVZ ([1]; 2 mg/kg)	numbers of BrdU immunoreactive cells in the SVZ of both hemispheres ([1]; 5 mg/kg)	numbers of BrdU immunoreactive cells in the dentate gyrus of both hemispheres ([1]; oral 2 or 5 mg/kg initiated at 2 or 24 hours after stroke)	animal body weight loss ([2]; 2 mg/kg or 5 mg/kg initiated at 2 hours)	performance on the foot-fault test and the adhesive removal test ([2]; 2 mg/kg or 5 mg/kg initiated at 2 hours of onset of ischemia, during 2 to 21 days, vs saline)	foot-fault and adhesive removal tests ([2]; 2 mg/kg starting at 24 hours after onset of ischemia, during 7 to 28 days)	body weight loss ([2]; 2 mg/kg starting at 24 hours, at 4, 7 14, 21 and 28 days after ischemia)	TuJ1 immunoreactive cells in the ipsilateral SVZ and striatum [3]	infarct volume 28 days after ischemia ([4]; 2 mg/kg starting at 24 hours, vs control group)	infarct volumes measured 28 days after ischemia ([4]; 2 or 5 mg/kg initiated at 2 hours, vs saline)	% of infarct volume at 28 days (Mean ± SE) ([4]; group 1: 2 h after MCAo, 2 mg/kg oral × 7days) [%]	% of infarct volume at 28 days (Mean ± SE) ([4]; group 2: 2 h after MCAo, 5 mg/kg oral × 7days) [%]	% of infarct volume at 28 days (Mean ± SE) ([4]; group 3: 24 h after MCAo, 2 mg/kg oral × 7days) [%]	motor and sensorimotor functions (Rotarod, footfault, Adhesive removal tests) [5]
CCCc1nn(C)c2c(=O)[nH]c(-c3cc(S(=O)(=O)N4CCN(C)CC4)ccc3OCC)nc12 [VIAGRA™, sildenafil]	significantly (p<0.05) increased	significantly (p<0.05) increased	significant (p<0.05) increases	significantly reduced	significantly improved performance	significant (p<0.05) improvements	significant (p<0.05) reduction	significantly (p<0.05) increased	no significant differences	not significantly different	35.15 ± 3.25	37.67 ± 4.33	35.52 ± 0.93	
CC(=O)N[C@H](C(=O)O)C(C)(C)SN=O (racemic) [SNAP, S-nitroso-N-acetylpenicillamine]														significant improvements
